These results are taken from patent US9586951B2 (FUJIFILM Corporation, priority 2013, dated 2017).

T1 sequence (Q13315 whole entry): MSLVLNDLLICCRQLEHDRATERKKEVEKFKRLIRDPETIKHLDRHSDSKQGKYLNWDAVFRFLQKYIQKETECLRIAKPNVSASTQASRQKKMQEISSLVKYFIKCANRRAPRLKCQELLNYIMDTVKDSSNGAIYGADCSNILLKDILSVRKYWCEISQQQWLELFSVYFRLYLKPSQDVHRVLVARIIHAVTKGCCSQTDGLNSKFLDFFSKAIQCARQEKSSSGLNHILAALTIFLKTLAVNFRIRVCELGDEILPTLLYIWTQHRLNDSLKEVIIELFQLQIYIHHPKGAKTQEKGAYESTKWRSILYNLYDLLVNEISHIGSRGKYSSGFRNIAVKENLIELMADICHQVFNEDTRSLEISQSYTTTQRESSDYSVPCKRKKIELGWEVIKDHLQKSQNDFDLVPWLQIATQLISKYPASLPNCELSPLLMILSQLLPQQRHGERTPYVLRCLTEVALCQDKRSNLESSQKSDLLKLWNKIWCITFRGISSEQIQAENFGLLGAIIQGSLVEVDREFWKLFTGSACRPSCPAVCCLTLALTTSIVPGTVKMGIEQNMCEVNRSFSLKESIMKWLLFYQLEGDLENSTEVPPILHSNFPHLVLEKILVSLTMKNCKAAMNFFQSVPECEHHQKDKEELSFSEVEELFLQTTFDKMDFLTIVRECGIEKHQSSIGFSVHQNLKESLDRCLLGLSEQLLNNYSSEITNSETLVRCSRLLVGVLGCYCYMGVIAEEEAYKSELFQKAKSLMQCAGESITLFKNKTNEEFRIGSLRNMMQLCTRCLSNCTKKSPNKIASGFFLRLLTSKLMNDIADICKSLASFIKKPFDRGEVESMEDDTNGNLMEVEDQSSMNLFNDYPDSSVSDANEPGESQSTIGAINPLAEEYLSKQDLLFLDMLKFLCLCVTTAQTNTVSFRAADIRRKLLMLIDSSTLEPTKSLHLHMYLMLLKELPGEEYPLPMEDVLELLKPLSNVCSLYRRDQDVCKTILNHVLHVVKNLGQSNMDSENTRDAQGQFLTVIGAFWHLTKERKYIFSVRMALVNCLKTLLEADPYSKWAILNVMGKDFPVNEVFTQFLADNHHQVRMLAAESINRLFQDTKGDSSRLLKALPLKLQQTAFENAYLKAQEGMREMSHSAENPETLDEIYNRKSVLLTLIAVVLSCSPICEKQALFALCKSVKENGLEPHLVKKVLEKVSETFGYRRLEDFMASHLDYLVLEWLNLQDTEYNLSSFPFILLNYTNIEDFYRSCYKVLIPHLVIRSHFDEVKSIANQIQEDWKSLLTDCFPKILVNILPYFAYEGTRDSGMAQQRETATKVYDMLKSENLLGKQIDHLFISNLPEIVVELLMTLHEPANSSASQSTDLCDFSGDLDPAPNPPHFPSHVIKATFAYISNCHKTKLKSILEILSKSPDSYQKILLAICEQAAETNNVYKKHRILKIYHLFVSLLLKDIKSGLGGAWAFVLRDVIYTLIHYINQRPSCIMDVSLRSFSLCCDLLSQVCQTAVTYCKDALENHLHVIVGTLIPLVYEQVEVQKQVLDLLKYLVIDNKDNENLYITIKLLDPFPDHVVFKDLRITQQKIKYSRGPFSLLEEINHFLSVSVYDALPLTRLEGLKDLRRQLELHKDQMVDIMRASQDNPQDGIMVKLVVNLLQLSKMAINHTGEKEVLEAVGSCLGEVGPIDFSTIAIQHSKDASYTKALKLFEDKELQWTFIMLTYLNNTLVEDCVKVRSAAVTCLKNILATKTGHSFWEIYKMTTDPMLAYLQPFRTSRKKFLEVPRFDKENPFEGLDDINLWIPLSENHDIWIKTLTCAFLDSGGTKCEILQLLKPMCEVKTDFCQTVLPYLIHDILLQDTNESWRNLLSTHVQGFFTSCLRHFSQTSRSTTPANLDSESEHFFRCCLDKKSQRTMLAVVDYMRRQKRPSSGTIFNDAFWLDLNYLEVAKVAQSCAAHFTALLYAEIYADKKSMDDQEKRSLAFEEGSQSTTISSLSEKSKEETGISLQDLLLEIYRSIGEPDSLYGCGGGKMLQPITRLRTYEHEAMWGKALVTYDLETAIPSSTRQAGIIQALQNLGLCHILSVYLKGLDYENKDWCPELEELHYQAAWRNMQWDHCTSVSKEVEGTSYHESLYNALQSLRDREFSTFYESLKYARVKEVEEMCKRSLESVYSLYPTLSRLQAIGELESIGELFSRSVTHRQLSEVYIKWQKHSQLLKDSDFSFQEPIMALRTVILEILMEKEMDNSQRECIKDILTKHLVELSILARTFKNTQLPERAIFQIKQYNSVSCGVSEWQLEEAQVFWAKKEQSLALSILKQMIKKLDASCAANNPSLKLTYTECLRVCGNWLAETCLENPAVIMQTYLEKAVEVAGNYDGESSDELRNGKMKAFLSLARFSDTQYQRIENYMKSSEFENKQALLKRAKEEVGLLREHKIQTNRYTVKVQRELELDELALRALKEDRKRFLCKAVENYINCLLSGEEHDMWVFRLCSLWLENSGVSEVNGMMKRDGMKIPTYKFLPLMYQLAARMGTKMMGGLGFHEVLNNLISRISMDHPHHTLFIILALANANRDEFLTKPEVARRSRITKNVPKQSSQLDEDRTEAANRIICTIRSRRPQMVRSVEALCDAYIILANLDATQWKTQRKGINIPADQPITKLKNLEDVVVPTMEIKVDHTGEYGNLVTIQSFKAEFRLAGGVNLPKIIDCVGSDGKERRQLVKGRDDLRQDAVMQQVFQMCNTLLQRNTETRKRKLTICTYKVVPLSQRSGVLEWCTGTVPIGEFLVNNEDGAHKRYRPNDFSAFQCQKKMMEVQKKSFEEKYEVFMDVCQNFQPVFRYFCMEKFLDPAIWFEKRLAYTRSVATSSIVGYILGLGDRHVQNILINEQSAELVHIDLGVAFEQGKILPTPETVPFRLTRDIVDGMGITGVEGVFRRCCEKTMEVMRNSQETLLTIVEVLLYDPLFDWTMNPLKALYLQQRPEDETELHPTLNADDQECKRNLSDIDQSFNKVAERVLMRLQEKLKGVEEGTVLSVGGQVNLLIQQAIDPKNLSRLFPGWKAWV

The test has as its target T1, ATM (Homo sapiens, UniProt Q13315).
T1 construct: detecting phosphorylation of Chk2 in a human non-small cell lung cancer cell line NCI-H460 (ATCC company); host or cells: NCI-H460 human non-small cell lung cancer cells
In words: ATM inhibition test (phosphorylation of Chk2 generated by ionizing radiation, AlphaScreen SureFire). The test is classed as cell-based. To be noted: phosphorylated Chk2 in NCI-H460 cells, ionizing radiation 8Gy, 1 hour after test compound treatment; read-out: ATM inhibitory activity. Put shortly: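 Human NCI-H460 lung cancer cells were treated with compound for 1 h, then irradiated at 8Gy and incubated 1 h at 37° C. Phospho-Chk2 was quantified by AlphaScreen SureFire; inhibition % was normalised between irradiated untreated and non-irradiated untreated wells.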
For orientation: Bead proximity is the source of the signal in Alpha formats.
As for `O=C(Nc1ncc(CNc2ccc3c(c2)Sc2cccc(-c4cc(N5CCOCC5)cc(=O)[nH]4)c2S3)cn1)N1CCCC1` [Example 1-12-48, N-(5-(((6-(4-Morpholino-6-oxo-1,6-dihydropyridin-2-yl)thianthren-2-yl)amino)methyl)pyrimidin-2-yl)pyrrolidine-1-car-boxamide], the IC50 lay in the range of 100 to 500 nM. Regarding `Cc1nccc(C(C)Nc2ccc3c(c2)Cc2cccc(-c4cc(N5CCOCC5)cc(=O)[nH]4)c2O3)n1` (centres unmarked) [Example 2-14-48, 6-(7-((1-(2-Methylpyrimidin-4-yl)ethyl)amino)-9H-xanthen-4-yl)-4-morpholino pyridin-2 (1H)-one], the IC50 is 100 to 500 nM. Next, `Cc1cc(C(C)Nc2ccc3c(c2)Cc2cccc(-c4cc(N5CCOCC5)cc(=O)[nH]4)c2O3)ccn1` (centres unmarked) [Example 2-14-28, 6-(7-((1-(2-Methylpyridin-4-yl)ethyl)amino)-9H-xanthen-4-yl)-4-morpholino pyridin-2(1H)-one]: 100 to 500 nM. Regarding `O=c1cc(N2CCOCC2)cc(-c2cccc3c2Oc2ccc(NCc4ccncc4Cl)cc2C3)[nH]1` [Example 2-2-25, 6-(7-(((3-Chloropyridin-4-yl)methyl)amino)-9H-xanthen-4-yl)-4-morpholino pyridin-2 (1H)-one], the IC50 was in the range of 100 to 500 nM. Next, `CN1CCC(Nc2ccc3c(c2)Cc2cccc(-c4cc(N5CCOCC5)cc(=O)[nH]4)c2S3)CC1` [Example 3-8-13, 6-(7-((1-Methylpiperidin-4-yl)amino)-9H-thioxanthen-4-yl)-4-morpholino pyridin-2 (1H)-one]: 100 to 500 nM; `O=c1cc(N2CCOCC2)cc(-c2cccc3c2Oc2ccccc2S3)[nH]1` [Example 4-12, 4-Morpholino-6-(phenoxathiin-4-yl)pyridin-2(1H)-one]: 500 to 2000 nM; `Nc1ncc(CNc2ccc3c(c2)Cc2cccc(-c4cc(N5CCOCC5)cc(=O)[nH]4)c2O3)cn1` [Example 2-2-15, 6-(7-(((2-Aminopyrimidin-5-yl)methyl)amino)-9H-xanthen-4-yl)-4-morpholino pyridin-2(1H)-one]: 500 to 2000 nM. Next, `COC[C@@H](Nc1ccc2c(c1)Sc1cccc(-c3cc(N4CCOCC4)cc(=O)[nH]3)c1S2)C(=O)O` [Example 1-49, (R)-3-methoxy-2-((6-(4-morpholino-6-oxo-1,6-dihydropyridin-2-yl)thianthren-2-yl)amino)propionic acid]: 500 to 2000 nM; `CN(C)[C@H](CNc1ccc2c(c1)Sc1cccc(-c3cc(N4CCOCC4)cc(=O)[nH]3)c1S2)Cc1ccccc1` [Example 1-2-2, (S)-6-(7-((2-(dimethylamino)-3-phenylpropyl)amino)thianthren-1-yl)-4-morpholinopyridin-2(1H)-one]: 100 to 500 nM; `COc1cncc(C(CO)Nc2ccc3c(c2)Sc2cccc(-c4cc(N5CCOCC5)cc(=O)[nH]4)c2S3)n1` (centres unmarked) [Example 1-12-79, 6-(7-((2-Hydroxy-1-(6-methoxypyrazin-2-yl)ethyl)amino)thianthren-1-yl)-4-morpholino pyridin-2(1H)-one]: 100 to 500 nM. In the case of “6-(7-((4,4-Difluoropiperidin- 1-yl)methyl)-9H-xanthen-4- yl)-4-morpholino pyridin-2 (1H)-one [Example 2-2-39]”, the IC50 is under 100 nM.

Consider `COc1ccncc1CNc1ccc2c(c1)Sc1cccc(-c3cc(N4CCOCC4)cc(=O)[nH]3)c1S2` [Example 1-12-23, 6-(7-(((4-Methoxypyridin-3-yl)methyl)amino)thianthren-1-yl)-4-morpholino pyridin-2 (1H)-one], for which the IC50 lay within 100 to 500 nM. The figure for `Cc1ccnc(C(C)Nc2ccc3c(c2)Sc2cccc(-c4cc(N5CCOCC5)cc(=O)[nH]4)c2S3)n1` (single isomer, unassigned) [Example 1-12-144-2, 6-(7-((1-(4-methylpyrimidin-2-yl)ethyl)amino)thianthren-1-yl)-4-morpholinopyridin-2(1H)-one] is 100 to 500 nM; for `O=c1cc(N2CCOCC2)cc(-c2cccc3c2Oc2ccc(NCc4ccc(CO)o4)cc2C3)[nH]1` [Example 2-13-3, 6-(7-(((5-(Hydroxymethyl)furan-2-yl)methyl)amino)-9H-xanthen-4-yl)-4-morpholino pyridin-2(1H)-one] it is 500 to 2000 nM; for `CC(CN1CCCC(O)C1)Nc1ccc2c(c1)Sc1cccc(-c3cc(N4CCOCC4)cc(=O)[nH]3)c1S2` (centres unmarked) [Example 1-13-6, 6-(7-((1-(3-Hydroxypiperidin-1-yl)propan-2-yl)amino)thianthren-1-yl)-4-morpholino pyridin-2(1H)-one] it is 100 to 500 nM. The figure for `COc1ccccc1CCN1CCC(Nc2ccc3c(c2)Cc2cccc(-c4cc(N5CCOCC5)cc(=O)[nH]4)c2O3)CC1` [Example 2-30-10, 6-(7-((1-(2-Methoxyphenethyl)piperidin-4-yl)amino)-9H-xanthen-4-yl)-4-morpholino pyridin-2(1H)-one] is 500 to 2000 nM. Next, `CC(Nc1ccc2c(c1)Cc1cccc(-c3cc(N4CCOCC4)cc(=O)[nH]3)c1O2)c1cccnc1` (racemic) [Example 2-11-1, 4-morpholino-6-(7-((1-(pyridin-3-yl)ethyl)amino)-9H-xanthen-4-yl)pyridin-2(1H)-one]: 100 to 500 nM; `COc1ccc(CCN2CCC(Nc3ccc4c(c3)Cc3cccc(-c5cc(N6CCOCC6)cc(=O)[nH]5)c3O4)CC2)cn1` [Example 2-28-38, 6-(7-((1-(2-(6-Methoxypyridin-3-yl)ethyl)piperidin-4-yl)amino)-9H-xanthen-4-yl)-4-morpholino pyridin-2(1H)-one]: 100 to 500 nM; `O=c1cc(N2CCOCC2)cc(-c2cccc3c2Oc2ccc(NC4CCN(Cc5cncnc5)CC4)cc2C3)[nH]1` [Example 2-28-4, 4-Morpholino-6-(7-((1-(pyrimidin-5-ylmethyl)piperidin-4-yl)amino)-9H-xanthen-4-yl)pyridin-2 (1H)-one]: 100 to 500 nM. For `N#Cc1ccnc(CNc2ccc3c(c2)Cc2ccnc(-c4cc(N5CCOCC5)cc(=O)[nH]4)c2O3)c1` [Example 2-41-16, 2-(((1-(4-Morpholino-6-oxo-1,6-dihydropyridin-2-yl)-5H-chromeno[2,3-c]pyridin-7-yl)amino)methyl)isonicotinonitrile], the IC50 fell in the range of 100 to 500 nM. Next, `O=c1cc(N2CCOCC2)cc(-c2cccc3c2Oc2ccc(NCc4cnc5occc5c4)cc2C3)[nH]1` [Example 2-2-44, 6-(7-((Furo[2,3-b]pyridin-5-ylmethyl)amino)-9H-xanthen-4-yl)-4-morpholino pyridin-2(1H)-one]: under 100 nM.

Regarding `Cc1ccc(C(Nc2ccc3c(c2)Sc2cccc(-c4cc(N5CCOCC5)cc(=O)[nH]4)c2S3)C2CCCC2)nc1` (centres unmarked) [Example 1-12-125, 6-(7-((Cyclopentyl(5-methylpyridin-2-yl)methyl)amino)thianthren-1-yl)-4-morpholino pyridin-2(1H)-one], the IC50 lay in the range of 100 to 500 nM. The figure for `CN(C)c1ncc(CN2CCC(Nc3ccc4c(c3)Cc3cccc(-c5cc(N6CCOCC6)cc(=O)[nH]5)c3O4)CC2)cn1` [Example 2-28-13, 6-(7-((1-((2-(Dimethylamino)pyrimidin-5-yl)methyl)piperidin-4-yl)amino)-9H-xanthen-4-yl)-4-morpholino pyridin-2(1H)-one] is 100 to 500 nM; for `CC(Nc1ccc2c(c1)Cc1ccnc(-c3cc(N4CCOCC4)cc(=O)[nH]3)c1O2)c1cccc(F)n1` (centres unmarked) [Example 2-41-13, 6-(7-((1-(6-Fluoropyridin-2-yl)ethyl)amino)-5H-chromeno[2,3-c]pyridin-1-yl]-4-morpholino pyridin-2(1H)-one] it is 100 to 500 nM. Turning to `CC(CN1CC(C)OC(C)C1)Nc1ccc2c(c1)Sc1cccc(-c3cc(N4CCOCC4)cc(=O)[nH]3)c1S2` (centres unmarked) [Example 1-13-11, 6-(7-((1-(2,6-Dimethylmorpholino)propan-2-yl)amino)thianthren-1-yl)-4-morpholino pyridin-2(1H)-one], the IC50 is under 100 nM.

On to `O=c1cc(N2CCOCC2)cc(-c2cccc3c2Sc2ccc(NC4CCCN(C5COC5)C4)cc2S3)[nH]1` (centres unmarked) [Example 1-24-6, 4-Morpholino-6-(7-((1-(oxetan-3-yl)piperidin-3-yl)amino)thianthren-1-yl) pyridin-2(1H)-one], for which the IC50 was 100 to 500 nM. As for `COCCN(C)CCNc1ccc2c(c1)Sc1cccc(-c3cc(N4CCOCC4)cc(=O)[nH]3)c1S2` [Example 1-10-12, 6-(7-((2-((2-Methoxyethyl) (methyl)amino)ethyl)amino)thianthren-1-y1)-4-morpholino pyridin-2(1H)-one], the IC50 is 100 to 500 nM. Next, `CC(Nc1ccc2c(c1)Sc1cccc(-c3cc(N4CCOCC4)cc(=O)[nH]3)c1S2)c1cccc(CN2CCCCC2)n1` (centres unmarked) [Example 1-12-109, 4-Morpholino-6-(7-((1-(6-(piperidin-1-ylmethyl)pyridin-2-yl)ethyl)amino)thianthren-1-yl)pyridin-2 (1H)-one]: 100 to 500 nM. The figure for `Cc1ccc(C(CCN(C)CCCN(C)C)Nc2ccc3c(c2)Sc2cccc(-c4cc(N5CCOCC5)cc(=O)[nH]4)c2S3)nc1` (single isomer, unassigned) [Example 10-5-2, 6-(7-((3-((3-(Dimethylamino)propyl)(methyl)amino)-1-(5-methylpyridin-2-yl)propyl)amino)thianthren-1-yl)-4-morpholinopyridin-2(1H)-one] is 100 to 500 nM.

In the case of `CC(CNC1CCCCC1)Nc1ccc2c(c1)Sc1cccc(-c3cc(N4CCOCC4)cc(=O)[nH]3)c1S2` (centres unmarked) [Example 1-13-7, 6-(7-((1-(Cyclohexylamino)propan-2-yl)amino)thianthren-1-yl)-4-morpholino pyridin-2(1H)-one], the IC50 was 100 to 500 nM. With `COc1cncc(C(C)Nc2ccc3c(c2)Cc2cccc(-c4cc(N5CCOCC5)cc(=O)[nH]4)c2O3)n1` (centres unmarked) [Example 2-14-57, 6-(7-((1-(6-Methoxypyrazin-2-yl)ethyl)amino)-9H-xanthen-4-yl)-4-morpholino pyridin-2(1H)-one], the IC50 lay within 100 to 500 nM.

Regarding `Cc1ccc(C(Nc2ccc3c(c2)Sc2cccc(-c4cc(N5CCOCC5)cc(=O)[nH]4)c2S3)[C@@H]2CCCN2C)nc1` (single isomer, unassigned) [Example 1-56-3], the IC50 was under 100 nM.
